Assay results published in patent publication US20240024273A1, “TOPICAL ADMINISTRATION OF 2-(DIETHYLAMINO)ETHYL 2-(4-ISOBUTYLPHENYL)PROPRIONATE FOR TREATMENT OF DISEASES” (TECHFIELDS PHARMA CO., LTD., priority 2020, published 2024).

System: Subjects with Osteoarthritis of the Knee
Test: Second Phase 2 study: safety (treatment-emergent adverse events)
Assay type: in vivo, human
Description: Safety assessments will be performed at each visit and will include assessment of AEs, vital signs (blood pressure, pulse rate, and oral temperature), clinical laboratories, physical examination, skin irritation, and electrocardiograms (ECGs) as indicated in the study flow chart, Table 47.
Safety assessments will include AEs, vital signs (blood pressures, pulse rate, and oral temperature), clinical laboratories, physical examination, skin irritation, and ECGs at various time points during the study as indicated in the study flow chart.
Adverse events of interest include: local skin reactions around the treated knee(s), upper stomach pain, GI bleeding, serious cardiovascular side effects (e.g., thrombotic events, myocardial infarction, or stroke), jaundice, elevated liver function tests, and nausea.
Safety analyses will be conducted on the SAS. Safety parameters will be listed and summarized using standard descriptive statistics, as appropriate. No formal statistical analyses are planned.

## CCN(CC)CCOC(=O)C(C)c1ccc(CC(C)C)cc1 (centres unmarked) [2-(diethylamino)ethyl 2-(4-isobutylphenyl)propionate]
8.75 mg/knee, BID, N = 70
  Neck Pain: number of adverse events: 3(%)[3]
  Neck Pain: subjects with adverse events, number (percentage): 3(%)[3]
  Nervous System Disorders: number of adverse events: 8
  Nervous System Disorders: subjects with adverse events, number (percentage): 7(10.0%)
  Oropharyngeal Pain: number of adverse events: 2
  Oropharyngeal Pain: subjects with adverse events, number (percentage): 2(1.4%)
  Pain in Extremity: number of adverse events: 1(%)[1]
  Pain in Extremity: subjects with adverse events, number (percentage): 1(%)[1]
  Respiratory, Thoracic and Mediastinal Disorders: number of adverse events: 3
  Respiratory, Thoracic and Mediastinal Disorders: subjects with adverse events, number (percentage): 3(4.3%)
  Skin Irritation: number of adverse events: 1
  Skin Irritation: percentage of subjects with adverse events: 1.4%
  Skin Irritation: subjects with adverse events: 1
  Skin and Subcutaneous Tissue Disorders: number of adverse events: 1
  Skin and Subcutaneous Tissue Disorders: percentage of subjects with adverse events: 1.4%
  Skin and Subcutaneous Tissue Disorders: subjects with adverse events: 1
  Subjects with Positive Fecal Occult Blood Test: 5
  Subjects with Positive Fecal Occult Blood Test, percentage: 7.1%
  Throat Irritation: number of adverse events: 1
  Throat Irritation: subjects with adverse events, number (percentage): 1(1.4%)
  Thrombosis: number of adverse events: 1
  Thrombosis: percentage of subjects with adverse events: 1.4%
  Thrombosis: subjects with adverse events: 1
  Tooth Infection: number of adverse events: 1
  Tooth Infection: subjects with adverse events, number (percentage): 1(1.4%)
  Toothache: number of adverse events: 1
  Toothache: percentage of subjects with adverse events: 1.4%
  Toothache: subjects with adverse events: 1
  Transaminases Increased: number of adverse events: 1
  Transaminases Increased: percentage of subjects with adverse events: 1.4%
  Transaminases Increased: subjects with adverse events: 1
  Upper Respiratory Tract Infection: number of adverse events: 12
  Upper Respiratory Tract Infection: subjects with adverse events, number (percentage): 12(15.7%)
  Urinary Tract Infection: number of adverse events: 6
  Urinary Tract Infection: subjects with adverse events, number (percentage): 6(8.6%)
  Vascular Disorders: number of adverse events: 2
  Vascular Disorders: percentage of subjects with adverse events: 2.9%
  Vascular Disorders: subjects with adverse events: 2
  Vertigo: number of adverse events: 2(%)[2]
  Vertigo: subjects with adverse events: 2(%)[2]
  White Blood Cell Count Decreased: number of adverse events: 2
  White Blood Cell Count Decreased: percentage of subjects with adverse events: 2.9%
  White Blood Cell Count Decreased: subjects with adverse events: 2
17.5 mg/knee (BID)
  GI disorders incidence rate: 5.7%
  incidence rate of AEs possibly, probably, or definitely related to study drug: 35.7%
  infections and infestations incidence rate: 18.6%
  positive fecal occult blood test incidence rate: 7.1%
17.5 mg/knee, BID, N = 70
  Abdominal Discomfort: number of adverse events: 1
  Abdominal Discomfort: percentage of subjects with adverse events: 1.4%
  Abdominal Discomfort: subjects with adverse events: 1
  Abdominal Pain Upper: number of adverse events: 2
  Abdominal Pain Upper: percentage of subjects with adverse events: 1.4%
  Abdominal Pain Upper: subjects with adverse events: 1
  Administration Site Conditions: number of adverse events: 4
  Administration Site Conditions: percentage of subjects with adverse events: 5.7%
  Administration Site Conditions: subjects with adverse events: 4
  Application Site Irritation: number of adverse events: 1
  Application Site Irritation: percentage of subjects with adverse events: 1.4%
  Application Site Irritation: subjects with adverse events: 1
  Application Site Rash: number of adverse events: 3
  Application Site Rash: percentage of subjects with adverse events: 4.3%
  Application Site Rash: subjects with adverse events: 3
